What all share (assay type): in vivo, Locusta migratoria
One test relates to NOS. Put plainly: Total NOS activity in locust brains (NOS Kit). Particulars: n = 4 samples. The protocol: (§1) An enzyme-linked immunosorbent assay (ELISA) kit (R and D Systems, Inc.) was used to detect the relative cAMP level in locust brains. For NO content determination, Total Nitric Oxide Assay Kit (Beyotime) was used. Because NO molecules are unstable, the total NO levels in all test groups were assessed by detecting the content of nitrate and nitrite. The NOS Kit (Nanjing Jiancheng Bioengineering Institute) was used to detect the total NOS activity in locust brains. Protein concentrations were measured using the BicinChoninic Acid (BCA) Protein Assay Kit (Thermo). All of these three measurements were performed according to the manufacturer’s instructions. Each measurement was from at least four biological replicates (12–16 locusts/replicate). Data were normalized to the protein concentration.

The test system of the next test is NO. Briefly: NO level in locust brains (Total Nitric Oxide Assay Kit). The settings on record: n = 4 samples. The protocol:
as §1

Another test deals with locusts. Put plainly: Behavioral arena assay (Pgreg, TDM, TDMV, attraction index). Particulars: for attraction index: 2 hr after drug injection (L-NAME in G-phase, SNAP in S-phase) or 48 hr after NOS knockdown in G-phase; for behavioral phase state (Pgreg) / total distance moved (TDM) / total duration of movement (TDMV): n ≥ 23. The protocol: The concentrations of peptides and drugs that were used were determined according to described methods ([[…] and Yates, 2007]; [Van […] et al., 2013b]). […] Working solutions of different concentrations (0.05, 0.5 and 2.5 μg/μl) were injected into the hemolymph in the heads of fourth-instar locusts using a microinjector (2 μl/locust). The arena behavioral assay was conducted 1 hr, 2 hr, and 4 hr following injection. […] Working solution (100 μM) was microinjected into the heads of G-phase locusts (2 μl/locust). SNAP was dissolved with DMSO to prepare 100 mM stock solution. Working solution (200 μM) was microinjected into the heads of S-phase locusts (2 μl/locust). Locust behaviors were tested 2 hr after drug injection. The behavioral assay was performed in a rectangular Perspex arena (40 cm × 30 cm × 10 cm) containing three chambers. The left chamber (7.5 cm × 30 cm × 10 cm) contained 30 fourth-instar G-phase locusts as a stimulus group, and the right chamber was empty (7.5 cm × 30 cm × 10 cm). Locusts behaviors were recorded for 300 s by an EthoVision video tracking system and analyzed according to the binary logistic regression model constructed in our previous work ([Guo et al., 2011]). Details are as follow: […] AI = total duration in stimulus area - total duration in the opposite of stimulus area; this parameter represents the extent to which the tested animals are attracted by the stimulus group. TDMV (total duration of movement) and TDM (total distance moved) indicate the locomotor activity levels. Pgreg indicates the probability that a locust is considered gregarious. […] In the behavioral assay, 16-35 locusts were tested for each treatment according to the sample size reported in previous studies ([Ott et al., 2012]; [Ma et al., 2011]). […] Two hours later, SNAP (200 μM, 2 μl/locust) was injected into the heads of the experimental insects. Control insects were treated with an equal amount of saline. The injected locusts were then raised under the gregarious condition and subjected to behavioral analysis 2 hr after injection of SNAP. For S-phase locusts, […] or […] was microinjected into the brains of fourth-instar S-phase insects. […] The insects treated with dsGFP were used as a control.

Where [1] appears, read: G-phase locust brains, 2 hr after L-NAME injection or 48 hr after NOS knockdown.
Where [2] appears, read: G-phase locusts, 2 hr after injection of L-NAME (100 μM, 2 μl/locust) or 48 hr after NOS knockdown.
Where [3] appears, read: S-phase locusts pre-injected with dsNPFR or dsNPYR, 2 hr after L-NAME injection, n ≥ 16.
[4] abbreviates: S-phase locust brains, 2 hr after SNAP injection.
Setting [5] is: G-phase locusts pre-injected with NPF1a or NPF2 peptide, SNAP 200 μM, 2 μl/locust 2 hr later, tested 2 hr after SNAP, n ≥ 24.
Where [6] appears, read: S-phase locusts, 2 hr after injection of SNAP (200 μM, 2 μl/locust).

For the molecule `COC(=O)[C@@H](N)CCCNC(N)=N[N+](=O)[O-]` [L-NAME, N-Nitro-L-arginine Methyl Ester], the NOS activity result in the test with NOS (setting [1]) is “significantly reduced”. The NO levels entry in the test on NO (setting [1]) is recorded as “significantly reduced”. In addition, the attraction index result in the test on locusts is “did not change the attraction index”. Besides, in the test on locusts (setting [2]), the “behavioral phase state (Pgreg)” value is recorded as “S-phase-like behavior”, the “total distance moved (TDM)” value is “strongly suppressed” and the “total duration of movement (TDMV)” value is recorded as “strongly suppressed”. In the test on locusts (setting [3]), the “Pgreg increase induced by NPFR or NPYR knockdown” value is “robustly abolished the increase”, the “total distance moved increase induced by NPFR or NPYR knockdown” value is reported as “robustly abolished the increase” and the “total duration of movement increase induced by NPFR or NPYR knockdown” value was “robustly abolished the increase”.
Take S-nitroso-N-acetyl-penicillamine [SNAP]: in the test on NOS (setting [4]), the NOS activity entry is listed as “without affecting NOS activity”. The NO levels result in the test on NO (setting [4]) is reported as “increased”. In the test on locusts, the attraction index entry is listed as “did not change the attraction index”. In the test with locusts (setting [5]), the “Pgreg, rescue” value was “robust recovery”; the “total distance moved, rescue” value is reported as “robust recovery”; the “total duration of movement, rescue” value was “robust recovery”. Besides, in the test on locusts (setting [6]), the “behavioral phase state (Pgreg)” value is listed as “pushed locust behavioral change from S-phase to G-phase state”, the “total distance moved (TDM)” value is listed as “enhanced” and the “total duration of movement (TDMV)” value was “enhanced”.

Source of the values: PMC5400507, “The neuropeptide F/nitric oxide pathway is essential for shaping locomotor plasticity underlying locust phase transition” (eLife, 2017).
